Activity calls are given as the source filed them. The rule behind the calls is not given here.
Columns and labels:
[1] = target: T1, Macrophage colony-stimulating factor 1 receptor (Mus musculus) (UniProt P09581); test: Inhibition of CSF-1R signaling pathway in C57BL/6 mouse BMDM cells assessed as reduction in M-CSF induced CSF-1R phosphorylation at 100 nM preincubated for 12 hrs followed by M-CSF stimulation for 30 mins by Western blot analysis; type: cell-based
T1 sequence (whole entry): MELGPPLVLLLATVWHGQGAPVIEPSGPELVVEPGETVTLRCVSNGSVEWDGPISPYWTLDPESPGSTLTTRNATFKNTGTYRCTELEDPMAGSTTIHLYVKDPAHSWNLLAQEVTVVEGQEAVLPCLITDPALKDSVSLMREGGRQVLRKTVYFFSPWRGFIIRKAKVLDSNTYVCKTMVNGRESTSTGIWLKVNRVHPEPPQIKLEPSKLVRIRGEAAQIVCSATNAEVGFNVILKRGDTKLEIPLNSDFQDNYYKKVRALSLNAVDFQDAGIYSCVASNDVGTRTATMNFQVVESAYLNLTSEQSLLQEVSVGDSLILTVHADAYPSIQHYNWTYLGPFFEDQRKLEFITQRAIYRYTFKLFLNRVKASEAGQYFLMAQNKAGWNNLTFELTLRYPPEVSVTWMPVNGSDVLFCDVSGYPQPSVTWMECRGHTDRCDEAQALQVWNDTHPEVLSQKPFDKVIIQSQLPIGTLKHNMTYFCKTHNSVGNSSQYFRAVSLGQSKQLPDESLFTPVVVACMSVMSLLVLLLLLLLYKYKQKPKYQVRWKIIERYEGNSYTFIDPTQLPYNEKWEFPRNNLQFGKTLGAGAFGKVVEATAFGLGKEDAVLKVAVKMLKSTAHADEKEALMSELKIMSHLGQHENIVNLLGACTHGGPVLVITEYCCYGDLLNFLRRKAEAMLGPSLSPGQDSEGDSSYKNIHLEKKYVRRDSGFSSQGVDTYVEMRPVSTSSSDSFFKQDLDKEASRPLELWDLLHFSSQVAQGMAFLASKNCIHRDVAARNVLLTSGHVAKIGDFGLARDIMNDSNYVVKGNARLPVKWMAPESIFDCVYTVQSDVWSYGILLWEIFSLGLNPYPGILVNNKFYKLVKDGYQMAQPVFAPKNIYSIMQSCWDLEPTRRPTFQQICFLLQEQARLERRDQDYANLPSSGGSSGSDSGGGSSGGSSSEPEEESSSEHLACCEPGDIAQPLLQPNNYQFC

[2] = target: T1, Macrophage colony-stimulating factor 1 receptor (Mus musculus); test: Inhibition of CSF-1R signaling pathway in C57BL/6 mouse BMDM cells assessed as reduction in M-CSF induced AKT phosphorylation preincubated for 12 hrs followed by M-CSF stimulation for 30 mins by Western blot analysis; type: cell-based
[3] = target: T2, Macrophage colony-stimulating factor 1 receptor (Mus musculus, UniProt P09581); test: Binding affinity to CSF-1R in C57BL/6 mouse BMDM cells assessed as dissociation constant by SPR assay
T2 sequence (P09581 whole entry): T1 sequence (whole entry)

BMDM = test: Induction of conversion of M2-macrophages to the M1 phenotype in CM of MC38 cells treated C57BL/6 mouse BMDM cells assessed as down regulation of Vegf mRNA expression at 30 to 100 nM preincubated with culture medium of MC38 cells for 24 hrs followed by compound addition and measured after 24 hrs by qPCR analysis; type: functional, cell-based; settings: dose 30-100 nM
THP-1 = test: Induction of conversion of M2-macrophages to the M1 phenotype in CM of HCT116 cells treated […]-differentiated human THP-1 cells assessed as down regulation of Vegf mRNA expression at 30 to 100 nM incubated for 24 hrs by qPCR analysis; type: functional, cell-based; settings: dose 30-100 nM
HCT-116 = test: Antiproliferative activity against human HCT-116 cells assessed as reduction in cell viability at 10 to 100 nM incubated for 24 hrs by CCK-8 assay; type: functional, cell-based; settings: dose 10-100 nM
Mus musculus = test: Toxicity in C57BL/6 mouse allografted with mouse MC38 cells assessed as lung damage at 5 to 20 mg/kg, po administered every day for 2 weeks by histopathological analysis; type: organism-based, MC-38; settings: in vivo, 336 h, dose 5-20 mg/kg
MC-38 [4] = test: Antitumor activity against mouse MC38 cells allografted in C57BL6 mouse assessed as reduction in CSF-1R phosphorylation in tumor tissue at 5 to 10 mg/kg, po administered daily for 2 weeks by Western blot analysis; type: functional, organism-based; settings: dose 5-10 mg/kg
MC-38 [5] = test: Antitumor activity against mouse MC38 cells allografted in C57BL6 mouse assessed as decrease in chil3 mRNA expression at 10 to 20 mg/kg, po administered daily for 2 weeks by qPCR analysis; type: functional, organism-based; settings: dose 10-20 mg/kg

SMILES: Cc1[nH]c(/C=C2\C(=O)Nc3cc(NC(=O)Nc4cc(C(C)(C)C)on4)ccc32)c(C)c1NC(=O)CN1CCN(C)CC1
- inhibition [1]: Active
- inhibition [2]: Dose-dependent effect
- Kd [3]: 3.4 nM
- Activity (BMDM): Active
- Activity (THP-1): Active
- Activity (HCT-116): inactive
- Activity (Mus musculus): Non-Toxic
- Activity (MC-38 [4]): Active
- Activity (MC-38 [5]): Active

— ChEMBL document CHEMBL5055668 (J Med Chem, 2021)
